Drawing on US20240262848A1, “HETEROCYCLIC COMPOUNDS, COMPOSITIONS THEREOF, AND METHODS OF TREATMENT THEREWITH” (BeiGene, Ltd., priority 2022, published 2024), this text covers IC50 for 16 compounds.

The target in assay [1] is GST-tagged GDP-loaded KRAS G12V (amino acids 1-169) (Homo sapiens, UniProt P01116, G12V). The assay is described as follows: KRAS G12V probe displacement assay (TR-FRET). In kind it is binding. The settings on record: Table 4; KRAS G12V 2 nM, biotinylated probe 2 2.5 nM. The protocol: Plates are incubated at 24 °C for 1 hr. […] After 1 hr incubation at 24° C.
For assay [2], the system named is pERK1/2(THR202/TYR204) level in SW620 cell line. The assay is described as follows: KRAS G12V pERK assay in SW620 cells (HTRF). In kind it is cell-based. The settings on record: Homo sapiens, SW-620, Table 4, 2 hrs compound treatment. On the procedure:
SW620 cell line was used in this study. Cells were maintained in RPMI 1640 supplemented with 10% fetal bovine serum (Thermo Fisher), 50 units/mL penicillin and streptomycin (Thermo Fisher) and kept at 37° C. in a humidified atmosphere of 5% CO2 in air. Cells were reinstated from frozen stocks that were laid down within 30 passages from the original cells purchased. 40000 cells per well were seeded into a 96-well plate and incubated overnight. Cells were treated with a 10-point dilution series. The final compound concentration is from 0 to 10 μM. After 2 hrs compound treatment, cells were lysed, and the pERK1/2(THR202/TYR204) level in the cell lysates was detected by HTRF kit (Cisbio). In brief, a total of 16 μL of cell lysate from each well of a 96-well plate was transferred to a 384-well white assay plate. Lysate from each well was incubated with 2 μL of Eu3+-cryptate (donor) labeled anti-phospho-ERK1/2 and 2 μL of D)2 (acceptor) labeled anti-phospho-ERK1/2 antibodies (Cisbio) overnight in dark at room temperature. When donor and acceptor are in close proximity, excitation of the donor with laser triggers a Fluorescence Resonance Energy Transfer (FRET) towards the acceptor, which in turn fluoresces at 655 nm wavelength. FRET signals were measured using a PHERAstar FSX reader (BMG Labtech). IC50 determination was performed by fitting the curve of percent inhibition versus the log of the inhibitor concentration using Dotmatics.
(Time-resolved FRET reads energy transfer from a long-lived donor to a nearby acceptor.)

Molecules are shown by their SMILES.

Chain of GST-tagged GDP-loaded KRAS G12V (amino acids 1-169) (P01116 1-169 isoform P01116-2 G12V): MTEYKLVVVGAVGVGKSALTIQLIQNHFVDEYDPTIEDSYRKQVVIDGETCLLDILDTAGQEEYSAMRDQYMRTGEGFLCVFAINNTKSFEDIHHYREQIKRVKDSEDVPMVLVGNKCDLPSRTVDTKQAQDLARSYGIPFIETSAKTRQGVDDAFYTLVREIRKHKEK

The IC50 is the concentration at which inhibition is half-maximal. High values mean weaker potency, low ones greater potency. On to `CN1c2nc(OC[C@@]34CCCN3C[C@H](F)C4)nc3c(F)c(-c4cc(N)cc(Cl)c4C(F)(F)F)nc(c23)OCCC12CCC2` [Example 32, 3-chloro-5-(4′-fluoro-2′-(((2R,7aS)-2-fluorotetrahydro-1H-pyrrolizin-7a(5H)-yl)methoxy)-11′-methyl-8′,9′-dihydro-11′H-7′-oxa-1′,3′,6′,11′-tetraazaspiro[cyclobutane-1,10′-cycloocta[de]naphthalen]-1′(11a′), 2′,3a′, 3 al′(6a′), 5′-pentaen-5′-yl)-4-(trifluoromethyl)aniline], for which the IC50 was found to be 3.4 nM in assay [1] and 133 nM in assay [2].
On the same counts, the results for `C[C@@H]1CCOc2nc(-c3cc(N)cc(Cl)c3C(F)(F)F)c(F)c3nc(OC[C@@]45CCCN4C[C@H](F)C5)nc(c23)N1C` [Example 26, 3-chloro-5-((R)-4-fluoro-2-(((2R,7aS)-2-fluorotetrahydro-1H-pyrrolizin-7a(5H)-yl)methoxy)-10,11-dimethyl-8,9,10,11-tetrahydro-7-oxa-1,3,6,11-tetraazacycloocta[de]naphthalen-5-yl)-4-(trifluoromethyl)aniline] are 0.79 nM and 32 nM.
For the compound `Cc1cc(N)cc(-c2nc3c4c(nc(OC[C@@]56CCCN5C[C@H](F)C6)nc4c2F)N(C)C2(CCO3)CC2)c1C(F)(F)F` [Example 53, 3-(4-fluoro-2-(((2R,7aS)-2-fluorotetrahydro-1H-pyrrolizin-7a(5H)-yl)methoxy)-11-methyl-8,9-dihydro-11H-7-oxa-1,3,6,11-tetraazaspiro[cycloocta[de]naphthalene-10,1′-cyclopropan]-1(11a), 2,3a, 3 al(6a), 5-pentaen-5-yl)-5-methyl-4-(trifluoromethyl)aniline], the IC50 in assay [1] was found to be 0.63 nM; in assay [2] it was 26 nM.
On the same counts, the results for `CC1CCN(C)c2nc(OC[C@@]34CCCN3C[C@H](F)C4)nc3c(F)c(-c4cc(N)cc(Cl)c4C(F)(F)F)nc(c23)O1` (stereo partly drawn) [Example 14, 3-chloro-5-(4-fluoro-2-(((2R,7aS)-2-fluorotetrahydro-1H-pyrrolizin-7a(5H)-yl)methoxy)-8,11-dimethyl-8,9,10,11-tetrahydro-7-oxa-1,3,6,11-tetraazacycloocta[de]naphthalen-5-yl)-4-(trifluoromethyl)aniline] are 13 nM and 414 nM.
In the case of `CN1c2nc(OC[C@@]34CCCN3C[C@H](F)C4)nc3c(F)c(-c4cc(N)cc(Cl)c4C(F)(F)F)nc(c23)OCC12COC2` [Example 23, 3-chloro-5-(4-fluoro-2-(((2R,7aS)-2-fluorotetrahydro-1H-pyrrolizin-7a(5H)-yl)methoxy)-10-methyl-8H, 10H-7-oxa-1,3,6,10-tetraazaspiro[cyclohepta[de]naphthalene-9,3′-oxetan]-1(10a), 2,3a, 3a^1(6a), 5-pentaen-5-yl)-4-(trifluoromethyl)aniline], the IC50 in assay [1] was determined as 9.2 nM; in assay [2], 338 nM.
As for `CN1c2nc(OC[C@@]34CCCN3C[C@H](F)C4)nc3c(F)c(-c4cc(N)cc(Cl)c4C(F)(F)F)nc(c23)OCCC12CC(O)C2` (stereo partly drawn) [Example 33, 5′-(5-amino-3-chloro-2-(trifluoromethyl)phenyl)-4′-fluoro-2′-(((2R,7aS)-2-fluorotetrahydro-1H-pyrrolizin-7a(5H)-yl)methoxy)-11′-methyl-8′,9′-dihydro-11′H-7′-oxa-1′,3′,6′,11′-tetraazaspiro[cyclobutane-1,10′-cycloocta[de]naphthalen]-1′(11a′), 2′0.3a′, 3 al′(6a′), 5′-pentaen-3-ol], the IC50 in assay [1] was 0.39 nM; in assay [2], 17 nM.
As to `CN1CCCOc2nc(-c3cc(N)cc(Cl)c3C(F)(F)F)c(F)c3nc(OC[C@@]45CCCN4C[C@H](F)C5)nc1c23` [Example 9, 3-chloro-5-(4-fluoro-2-(((2R,7aS)-2-fluorotetrahydro-1H-pyrrolizin-7a(5H)-yl)methoxy)-11-methyl-8,9,10,11-tetrahydro-7-oxa-1,3,6,11-tetraazacycloocta[de]naphthalen-5-yl)-4-(trifluoromethyl)aniline], the 50% inhibitory concentration (IC50) in assay [1] was found to be 5.2 nM; in assay [2], 249 nM.
`CCN1c2nc(OC[C@@]34CCCN3C[C@H](F)C4)nc3c(F)c(-c4cc(N)cc(C)c4C(F)(F)F)nc(c23)OCCC12CC2` [Example 54, 3-(11-ethyl-4-fluoro-2-(((2R,7aS)-2-fluorotetrahydro-1H-pyrrolizin-7a(5H)-yl)methoxy)-8,9-dihydro-11H-7-oxa-1,3,6,11-tetraazaspiro[cycloocta[de]naphthalene-10,1′-cyclopropan]-1(11a), 2,3a, 3a^1(6a), 5-pentaen-5-yl)-5-methyl-4-(trifluoromethyl)aniline]: the IC50 came out at 1.7 nM in assay [1] and 51 nM in assay [2].
On the same counts, the results for `CCN1c2nc(OC[C@@]34CCCN3C[C@H](F)C4)nc3c(F)c(-c4cc(N)cc(C)c4C(F)(F)F)nc(c23)O[C@H]2COCC[C@@H]21` [Example 57, 3-((7aR,11aS)-12-ethyl-4-fluoro-2-(((2R,7aS)-2-fluorotetrahydro-1H-pyrrolizin-7a(5H)-yl)methoxy)-7a, 8,10,11,11a, 12-hexahydro-7,9-dioxa-1,3,6,12-tetraazapleiaden-5-yl)-5-methyl-4-(trifluoromethyl)aniline] are 0.83 nM and 41 nM.
On the same counts, the results for `CN1c2nc(OC[C@@]34CCCN3C[C@H](F)C4)nc3c(F)c(-c4cc(N)cc(Cl)c4C(F)(F)F)nc(c23)OCC12CCC2` [Example 24, 3-chloro-5-(4′-fluoro-2′-(((2R,7aS)-2-fluorotetrahydro-1H-pyrrolizin-7a(5H)-yl)methoxy)-10′-methyl-8′H, 10′H-7′-oxa-1′,3′,6′,10′-tetraazaspiro[cyclobutane-1,9′-cyclohepta[de]naphthalen]-1′(10a′), 2′,3a′, 3 al′(6a′), 5′-pentaen-5′-yl)-4-(trifluoromethyl)aniline] are 2.6 nM and 95 nM.
In the case of `CC1CC(C)N(C)c2nc(OC[C@@]34CCCN3C[C@H](F)C4)nc3c(F)c(-c4cc(N)cc(Cl)c4C(F)(F)F)nc(c23)O1` (stereo partly drawn) [Example 21, 3-chloro-5-(4-fluoro-2-(((2R,7aS)-2-fluorotetrahydro-1H-pyrrolizin-7a(5H)-yl)methoxy)-8,10,11-trimethyl-8,9,10,11-tetrahydro-7-oxa-1,3,6,11-tetraazacycloocta[de]naphthalen-5-yl)-4-(trifluoromethyl)aniline], the IC50 in assay [1] came out at 1.7 nM; in assay [2], 26 nM.
The matching figures for `CN1CCOC(C)(COc2nc3c4c(nc(-c5cc(N)cc(Cl)c5C(F)(F)F)c(F)c4n2)O[C@H]2COCC[C@@H]2N3C)C1` (stereo partly drawn) [Example 63, 3-chloro-5-((7aR,11aS)-2-((2,4-dimethylmorpholin-2-yl)methoxy)-4-fluoro-12-methyl-7a, 8,10,11,11a, 12-hexahydro-7,9-dioxa-1,3,6,12-tetraazapleiaden-5-yl)-4-(trifluoromethyl)aniline]: 1.1 nM and 25 nM.
The matching figures for `C#Cc1c(F)ccc2cc(O)cc(-c3nc4c5c(nc(OC[C@@]67CCCN6C[C@H](F)C7)nc5c3F)N(C3CC3)CCCO4)c12` [Example 5, 4-(11-cyclopropyl-4-fluoro-2-(((2R,7aS)-2-fluorotetrahydro-1H-pyrrolizin-7a(5H)-yl)methoxy)-8,9,10,11-tetrahydro-7-oxa-1,3,6,11-tetraazacycloocta[de]naphthalen-5-yl)-5-ethynyl-6-fluoronaphthalen-2-ol]: 0.87 nM and 288 nM.
On the same counts, the results for `C#Cc1c(F)ccc2cc(O)cc(-c3cc4c5c(nc(OC[C@@]67CCCN6C[C@H](F)C7)nc5c3F)N(C)CCCO4)c12` [Example 1, 5-ethynyl-6-fluoro-4-(11-fluoro-2-(((2R,7aS)-2-fluorotetrahydro-1H-pyrrolizin-7a(5H)-yl)methoxy)-4-methyl-4,5,6,7-tetrahydro-[1,5]oxazocino[4,3,2-de]quinazolin-10-yl)naphthalen-2-ol] are 3.2 nM and 624 nM.
Consider `Nc1cc(Cl)c(C(F)(F)F)c(-c2nc3c4c(nc(OC[C@@]56CCCN5C[C@H](F)C6)nc4c2F)N(CCO)CCO3)c1` [Example 7, 2-(5-(5-amino-3-chloro-2-(trifluoromethyl)phenyl)-4-fluoro-2-(((2R,7aS)-2-fluorotetrahydro-1H-pyrrolizin-7a(5H)-yl)methoxy)-8,9-dihydro-10H-7-oxa-1,3,6,10-tetraazacyclohepta[de]naphthalen-10-yl)ethan-1-ol], for which the IC50 amounted to 2.5 nM in assay [1] and 586 nM in assay [2].
On the same counts, the results for `CN1c2nc(OC[C@@]34CCCN3C[C@H](F)C4)nc3c(F)c(-c4cc(N)cc(Cl)c4C(F)(F)F)nc(c23)OC[C@H]2COC[C@@H]21` (single isomer, unassigned) [Example 68 Isomer 1] are 1.8 nM and 51 nM.
